The values that follow are results of earlier work, collected in paper PMC13366575, “Structure−Activity Relationships among Inhibitors of Acinetobacter baumannii and Klebsiella pneumoniae 1-Deoxy-D-xylulose 5-Phosphate Reductoisomerase (DXR/IspC) − A Promising Target for Antibiotic Development” (ACS Infectious Diseases, 2026).

As usually defined, the IC50 is the concentration at which inhibition is half-maximal.

For this series, the target named is KpIspC (Klebsiella pneumoniae, UniProt A6T4X5).
KpIspC, sequence (A6T4X5 entry or part of it): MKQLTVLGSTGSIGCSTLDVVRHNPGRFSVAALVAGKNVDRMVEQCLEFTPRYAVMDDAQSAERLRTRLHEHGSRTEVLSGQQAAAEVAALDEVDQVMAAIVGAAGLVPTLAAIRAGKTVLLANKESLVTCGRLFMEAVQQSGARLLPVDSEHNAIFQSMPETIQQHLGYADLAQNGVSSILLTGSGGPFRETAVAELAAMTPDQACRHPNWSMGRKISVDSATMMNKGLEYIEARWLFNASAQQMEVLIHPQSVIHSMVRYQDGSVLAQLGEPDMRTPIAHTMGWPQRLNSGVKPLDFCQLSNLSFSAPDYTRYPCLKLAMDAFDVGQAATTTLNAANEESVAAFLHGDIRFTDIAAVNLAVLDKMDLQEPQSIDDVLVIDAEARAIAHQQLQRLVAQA

Take `O=CN(O)CCCP(=O)(O)O` [Compound 1a, Fosmidomycin]: the IC50 was 0.02 µM.
